According to ChEMBL document CHEMBL5260814, “Design strategies in the prodrugs of HIV-1 protease inhibitors to improve the pharmaceutical properties” (Eur J Med Chem, 2017):
Converted amounts (≈) assume the structure as drawn. One block for each molecule: values may come before it.

What was measured:
[1] = Stability of compound in PBS buffer at pH 7.3 assessed as half life; type: physicochemical
P-glycoprotein = test: Efflux ratio of apparent permeability across basal to apical membrane over apical to basal membrane in human Caco-2 cells in absence of P-glycoprotein; type: ADME, cell-based
[2] = Metabolic stability in rat liver microsome assessed as half life […]; type: ADME; details: liver microsomes
[3] = Aqueous solubility of compound; type: physicochemical; details: buffer
[4] = Stability of compound assessed as half life at pH 2; type: physicochemical; details: buffer
[5] = AUC in rat at 5 mg/kg, po; type: ADME, organism-based; set-up: dose 5 mg/kg, route po; details: in vivo
[6] = Metabolic stability in rat liver microsome assessed as compound remaining measured after 2 hrs; type: ADME; details: microsomes
[7] = Metabolic stability in rat liver microsome assessed as compound remaining measured after 4 hrs; type: ADME; details: microsomes
[8] = Water solubility of compound; type: physicochemical
[9] = Stability of compound in PBS at pH 7.4 assessed as half life; type: physicochemical
[10] = Stability of compound in PBS at pH 5.5 assessed as half life; type: physicochemical
[11] = Stability of compound in PBS at pH 4.9 assessed as half life; type: physicochemical
[12] = Half life in calf; type: ADME, Bos taurus; details: cattle
[13] = Efflux ratio of apparent permeability across apical to basolateral to basolateral to apical side in MDCK1 cells; type: ADME, cell-based
[14] = Oral bioavailability in rat at 3 mg/kg; type: ADME, organism-based; details: in vivo
[15] = Efflux ratio of apparent permeability across basal to apical membrane over apical to basal membrane in human Caco-2 cells; type: ADME, cell-based
CEM-SS = test: Cytotoxicity against human CEM-SS cells assessed as inhibition of cell growth; type: functional
[16] = Equilibrium solubility of compound; type: physicochemical
[17] = Metabolic stability in rat plasma assessed as half life at 0.2 mg/kg, po; type: ADME

SMILES: CC(C)[C@H](N)C(=O)O[C@H](CN1C[C@H]2CCCC[C@H]2C[C@H]1C(=O)NC(C)(C)C)[C@H](Cc1ccccc1)NC(=O)[C@H](CC(N)=O)NC(=O)c1ccc2ccccc2n1
efflux ratio (P-glycoprotein): 1.2
half-life [2]: 47 min

SMILES: Cc1ccccc1OCC(=O)O[C@H](C(=O)N1CSC(C)(C)[C@H]1C(=O)NC(C)(C)C)[C@@H](N)Cc1ccccc1.Cl
solubility [8]: 14 mg/mL
half-life [9]: < 1 min
half-life [10]: 2.6 min
half-life [11]: 20.8 min

SMILES: CC(C)(C)NC(=O)[C@H]1C[C@@H]2CCCC[C@@H]2CN1C[C@@H](OC(=O)CCCCO[C@H]1O[C@H](CO)[C@@H](O)[C@H](O)[C@@H]1O)[C@H](Cc1ccccc1)NC(=O)[C@H](CC(N)=O)NC(=O)c1ccc2ccccc2n1
half-life [1]: 50 h

SMILES: CC(C)c1nc(CN(C)C(=O)N[C@H](C(=O)N[C@@H](Cc2ccccc2)C[C@H](OCOP(=O)([O-])[O-])[C@H](Cc2ccccc2)NC(=O)OCc2cncs2)C(C)C)cs1.[Na+].[Na+]
solubility [3]: > 5 mg/mL
half-life [12]: 7 min
AUC [5]: 460 ng·h/mL

SMILES: CC(C)(C)NC(=O)[C@@H]1CN(Cc2cccnc2)CCN1C[C@@H](O)C[C@@H](Cc1ccccc1)C(=O)N[C@H]1c2ccccc2C[C@H]1OC(=O)CCCCO[C@H]1O[C@H](CO)[C@@H](O)[C@H](O)[C@@H]1O
half-life [1]: 50 h

SMILES: CC(C)[C@H](NC(=O)CN)C(=O)O[C@H](CN1C[C@H]2CCCC[C@H]2C[C@H]1C(=O)NC(C)(C)C)[C@H](Cc1ccccc1)NC(=O)[C@H](CC(N)=O)NC(=O)c1ccc2ccccc2n1
Ratio [13]: 2.1

SMILES: Cc1c(OC(=O)CCCCO[C@H]2O[C@H](CO)[C@@H](O)[C@H](O)[C@@H]2O)cccc1C(=O)N[C@@H](CSc1ccccc1)[C@H](O)CN1C[C@H]2CCCC[C@H]2C[C@H]1C(=O)NC(C)(C)C
half-life [1]: 50 h

SMILES: CC(C)[C@H](N)C(=O)O[C@@H]1Cc2ccccc2[C@@H]1NC(=O)[C@H](Cc1ccccc1)C[C@H](O)CN1CCN(Cc2cccnc2)C[C@H]1C(=O)NC(C)(C)C
bioavailability [14]: 32%

SMILES: CCCCCCCC/C=C\CCCCCCCC(=O)OCC(COC(=O)CCCCCCC/C=C\CCCCCCCC)OC(=O)CCC(=O)O[C@@H](C[C@@H](Cc1ccccc1)C(=O)N[C@H]1c2ccccc2C[C@H]1O)CN1CCN(Cc2cccnc2)C[C@H]1C(=O)NC(C)(C)C
CC50 (CEM-SS): > 100 µM

SMILES: CC(C)CN(C[C@@H](O)[C@H](Cc1ccccc1)NC(=O)O[C@H]1CCOC1)S(=O)(=O)c1ccc(N)cc1
solubility thermodynamic [16]: 160 µM (≈ 80.9 µg/mL)

SMILES: Cc1ccccc1OCC(=O)O[C@H](C(=O)N1CSC[C@H]1C(=O)NC(C)(C)C)[C@@H](N)Cc1ccccc1.Cl
solubility [8]: 15 mg/mL
half-life [9]: < 1 min
half-life [10]: 2.4 min
half-life [11]: 19.6 min

Further lines, results first:

half-life [1]: 50 h
SMILES: CC(C)(C)NC(=O)[C@@H]1CN(Cc2cccnc2)CCN1C[C@H](C[C@@H](Cc1ccccc1)C(=O)N[C@H]1c2ccccc2C[C@H]1OC(=O)CCCCO[C@H]1O[C@H](CO)[C@@H](O)[C@H](O)[C@@H]1O)OC(=O)CCCCO[C@H]1O[C@H](CO)[C@@H](O)[C@H](O)[C@@H]1O

solubility [3]: > 5 mg/mL
half-life [4]: < 15 min
AUC [5]: 630 ng·h/mL
SMILES: CC(O[C@@H](C[C@H](Cc1ccccc1)NC(=O)[C@@H](NC(=O)N(C)Cc1csc(C(C)C)n1)C(C)C)[C@H](Cc1ccccc1)NC(=O)OCc1cncs1)OP(=O)([O-])[O-].[Na+].[Na+] (stereo not given in full)

Stability [6]: 26%
Stability [7]: 46%
SMILES: Cc1cccc(C)c1OCC(=O)N[C@@H](Cc1ccccc1)[C@H](C[C@H](Cc1ccccc1)NC(=O)[C@H](C(C)C)N1CCCNC1=O)OC(=O)[C@@H](NC(=O)CN)C(C)C

efflux ratio [15]: 12
SMILES: COC(=O)N[C@H](C(=O)N[C@@H](Cc1ccccc1)[C@@H](O)CN(Cc1ccc(-c2ccccn2)cc1)NC(=O)[C@@H](NC(=O)OC)C(C)(C)C)C(C)(C)C [ATAZANAVIR]

efflux ratio (P-glycoprotein): 1.2
half-life [2]: 178 min
SMILES: CC(C)[C@H](N)C(=O)N[C@@H](C(=O)O[C@H](CN1C[C@H]2CCCC[C@H]2C[C@H]1C(=O)NC(C)(C)C)[C@H](Cc1ccccc1)NC(=O)[C@H](CC(N)=O)NC(=O)c1ccc2ccccc2n1)C(C)C

Stability [6]: 10%
Stability [7]: 46%
SMILES: Cc1cccc(C)c1OCC(=O)N[C@@H](Cc1ccccc1)[C@H](C[C@H](Cc1ccccc1)NC(=O)[C@H](C(C)C)N1CCCNC1=O)OC(=O)[C@@H](NC(=O)[C@@H](N)C(C)C)C(C)C

efflux ratio (P-glycoprotein): 1.2
half-life [2]: 89 min
half-life [17]: 468 min
Ratio [13]: 2.1
SMILES: CC(C)[C@H](N)C(=O)N[C@H](C(=O)O[C@H](CN1C[C@H]2CCCC[C@H]2C[C@H]1C(=O)NC(C)(C)C)[C@H](Cc1ccccc1)NC(=O)[C@H](CC(N)=O)NC(=O)c1ccc2ccccc2n1)C(C)C
